In patent US20250188085A1, “COMPOSITIONS AND METHODS FOR INHIBITION OF RAS” (THERAS, INC., priority 2022, published 2025):
Like-named read-outs stand apart in the source and are kept apart here.

Tests used:
[1] = target: T1, GppNHp-loaded KRAS4b (amino acids 1-169) G12C/C118S protein (Homo sapiens, UniProt P01116, C118S/G12C); assay: Covalent cysteine 12 modification by MALDI-TOF MS, GppNHp-loaded KRAS G12C; format: binding; conditions: 15 minutes reaction time point
T1 construct: KRAS4b (amino acids 1-169) G12C/C118S protein; made in house
Experimental: (§1) Reaction: 1 μM of GppNHp-, GTP-, or GDP-loaded KRAS4b (amino acids 1-169) G12C/C118S protein (produced in-house by Protein Expression Laboratory, FNLCR/Leidos Biomed) in 20 mM 4-(2-hydroxyethyl)-1-piperazineethanesulfonic acid (HEPES) buffer containing 150 mM NaCl, 1 mM MgCl2, pH 7.3 was prepared freshly before assay. Ten-μL aliquots of protein were dispensed onto low volume 384-well plate, then 375 nL DMSO, and 25 nL of tested compounds from 5 mM DMSO stocks were added to appropriate wells using ECHO 555 acoustic liquid handler (Labcyte Inc.). For each reaction/assay, three blanks were prepared by mixing 10 μL of protein solution with 400 nL DMSO. The contents of the wells were carefully mixed by aspiration, and then each plate was sealed with an adhesive cover, centrifuged at 2000 g for 1 minute, and kept in the dark at room temperature until 5 min, 15 min, 30 min, or 2 h collections.
(§2) Target pretreatment: Before each assay MALDI target (Bruker MPT 384 ground steel BC) was pre-treated by pipetting on each spot 0.75 μL of saturated sinapinic acid in acetonitrile (ACN).
(§3) Sample preparation: At collection time point, 2 μL of reaction mixtures were pipetted out into 20 μL MALDI matrix solution (saturated solution of sinapinic acid in 1:1 ACN:water solution containing 0.75% trifluoroacetic acid (TFA)) deposited on 384 well polypropylene plate. Resulting solution was mixed by aspiration, centrifuged at 2000 g for 1 minute, then 1 μL aliquots were dispensed on pre-treated MALDI target using Beckman Coulter Biomek FXP 96/384-Span-8 Laboratory Automation Workstation. Finally, the MALDI target was dried under mild vacuum to produce spots with fine crystalline structure.
(§4) Measurements: MALDI-TOF measurements were performed on a Bruker Daltonics rapiflex Tissuetyper TOF-TOF mass spectrometer using linear mode and mass range from 18.6 to 21.6 kDa. Detector gain was set to 3.3× (483 V), sample rate to 5 GS/s, real time smoothing to medium (175 MHz), laser smart beam pattern was set to: “MS Thin Layer M5”, and the laser frequency was 10000 Hz. Spectra were automatically collected using custom Auto Xecute method. Laser power was auto adjusted using fuzzy control. The peak selection range was set to be between 19000 and 21500 Da. Peak evaluation uses half width parameter set to be smaller than 40 Da for processed spectrograms (centroid peak detection; smoothed by SavitzkyGolay algorithm using 7 m/z width and 2 cycles; baseline was subtracted using median algorithm with flatness 1 and median level 0.01). Fuzzy control used Proteins/Oligonucleotides protocol with minimum half width 1/10 times above threshold. Up to 40000 satisfactory shots were collected in 10000 shot steps. Dynamic termination was implemented to finish data collection when peak signal/noise ratio was reaching value of 50.
(§5) Spectra processing: Spectra were smoothed by SavitzkyGolay algorithm using 7 m/z width and three cycles. Centroid peak detection algorithm was used with signal to noise threshold set to 6, relative intensity threshold 4%, peak width 10 m/z and median baseline subtraction using flatness of 1 and median level of 0.01. Peak intensity and area under the peak were evaluated and recorded for all peaks between 19,300 Da and 21,550 Da.
(§6) Calculation of percent modification: Percent modification was calculated as a ratio of peak height for protein modified by compound to sum of peak height of remaining protein plus peak height for protein modified by compound. If multiple modifications were observed each was calculated as a ratio of peak height for given modification versus sum of peak heights for all observed protein species. Data reported in Table 5 are from 15 minutes reaction time point.

[2] = target: T2, GDP-loaded KRAS4b (amino acids 1-169) G12C/C118S protein (Homo sapiens, UniProt P01116, C118S/G12C); assay: Covalent cysteine 12 modification by MALDI-TOF MS, GDP-loaded KRAS G12C; format: binding; conditions: 15 minutes reaction time point
T2 construct: KRAS4b (amino acids 1-169) G12C/C118S protein; made in house
Experimental: as §1, §2, §3, §4, §5, §6

[3] = target: T3, Avi-KRAS G12C (1-169) GppNHp/RAF1 RBD-3×FLAG (52-151) (Homo sapiens, UniProt P01116, G12C); assay: Raf1 RBD-KRAS G12C-GppNHp disruption (protein:protein interaction HTRF assay); format: biochemical
T3 construct: Avi-KRAS G12C (1-169) GppNHp/RAF1 RBD-3×FLAG (52-151)
Experimental: A protein: protein (PPI) interaction Homogeneous Time Resolved Fluorescence (HTRF) assay was used to determine the effectiveness of compounds of the present disclosure in disrupting KRAS G12C protein and effector (RAF1 or PIK3CA) binding.
The HTRF assay used the following reagents and proteins: 50 nM Avi-KRAS G12C Q25A (1-169) GppNHp/3×FLAG-PI3K CA (157-299); 50 nM Avi-KRAS G12C (1-169) GppNHp/RAF1 RBD-3×FLAG (52-151); 35 nM Avi-PI3K RBD-3×FLAG; Assay Buffer: 50 mM Tris pH 7.5, 100 mM NaCl, 5 mM MgCl2, 0.1% BSA, 0.01% Tween 20, 10% DMSO; Bead Buffer: 50 mM Tris pH 7.5, 0.01% Tween 20; Assay volume: 20 μL (384 well plate-low volume format); and Compound titration: 30-0.02 μM, 3× dilution series.
The HTRF assay employed the following protocol:
Compounds were dispensed in assay plate (384-well, Grenier Bione #784075) using Echo (model 555) with dose response settings: 200 nL final volume, titration from 100 μM as a 10-point dilution series. KRAS proteins were prepared in assay buffer, and dispensed on plates, 5 μL per well, then incubated for 1 h at room temperature, with 700 rpm shaking. RAF1 RBD and PI3K RBD CA were prepared in assay buffer, dispensed onto plates, 5 μL per well, and then incubated for 1 h at room temperature, with 700 rpm shaking. Reagent mix was then prepared and dispensed on plates, 10 μL per well, and then incubated for 1 h at room temperature, with 700 rpm shaking.
Plates were analyzed on an Envision plate reader using the following setting: Excitation 320 nm, Bandwidth 75 nm; Emission 615 nm, Bandwidth 85 nm; Gain 100%; Flashes 100; Lag 60 μs. Data was reported as percentage of activity, with DMSO as 100%. Data was plotted and analyzed using Prism 8.

pERK in NCI-H358 cells = assay: Cell-based pERK HTRF assay; conditions: 30 min incubation, read-out: pERK in NCI-H358 cell inhibition IC50
Experimental: pERK assays (Perkin Elmer) were used to determine the effectiveness of compounds of the present disclosure in disrupting KRAS G12C protein/effector signaling in cells.
On Day 1, cells (NCI-H358) were seeded into 96-well plates at 4×10^4 cells/well in complete growth media (RPMI, 10% FBS).
On Day 2, cells were treated with compounds at 0.25% DMSO. The source plate was created with compounds diluted in media at 5-fold the final assay concentration. The compounds were run in a 9-point concentration curve starting at 75 μM, with a 3-fold dilution between concentrations. 20 μL was transferred onto the cell plates (final volume in wells was 100 μL). Plates were harvested after 30 min incubation by aspirating media and adding kit-supplied 1× supplemented lysis buffer to all wells (75 μl per well). Plates were then placed on a plate shaker and incubated at 850 rpm for an additional 30 min.
Antibody mixture solution was prepared by diluting aliquoted d2 and Eu Cryptate antibodies 1:20 in kit supplied detection buffer, then mixed the diluted antibodies solutions (1:1 v:v). 4 μL of this solution was then added to a 384-well detection plate (Perkin Elmer; 6008230).
Samples were homogenized by pipetting up and down and then transferred (16 μL of cell lysates) from the 96-well cell culture plate to two wells of the HTRF 384-well detection plate containing the antibody solution. Plates were centrifuged (524 g for Imin) and allowed to incubate between 4 and 24 h at room temperature. Maximum signal is reached after 4 h incubation time and remains stable over a period of 24 hours. Therefore, readings can be made between 4 and 24 h of incubation. Plates were centrifuged again (524 g for Imin) and analyzed on the En Vision plate reader using the following settings: Excitation 320 nm, Bandwidth 75 nm; Emission 615 nm, Bandwidth 85 nm; Gain 100%; Flashes 100; Lag 60 μs.

Row | GppNHp-KRAS G12C percent of modification [1] | GDP-KRAS G12C percent of modification [2] | IC50 [3] [nM] | IC50 (pERK in NCI-H358 cells) [nM] | IC50 (pERK in NCI-H358 cells; Homo sapiens, NCI-H358, 0.5 h) [nM] | SMILES
1 | B (50≤percent of modification <70%) | A (percent of modification ≥70%) | ≤ 500 | ≤ 100 |  | C=CC(=O)N1CC[C@@H](Oc2nc(OC[C@@H]3CC4(CC4)CN3C)nc3c(F)c(-c4ccc(F)c5sc(N)nc45)c(C(F)(F)F)cc23)C1 (atropisomer, axis not shown) [Compound 24]
2 | D (percent of modification <10%) | D (percent of modification <10%) | 5000 to 20000 | > 1000 |  | C=CC(=O)N1CC[C@@H](Oc2nc(OC[C@@H]3CC4(CC4)CN3C)nc3c(F)c(-c4ccc(F)c5sc(N)nc45)c(C(F)(F)F)cc23)C1 (atropisomer, axis not shown) [Compound 25]
3 | C (10%≤modification <50%) | A (percent of modification ≥70%) | ≤ 500 |  | ≤ 100 | C=CC(=O)N1C[C@@H](C)[C@@H](Oc2nc(OC[C@@]34CCCN3C[C@H](F)C4)nc3c(F)c(-c4ccc(F)c5sc(N)nc45)c(C(F)(F)F)cc23)C1 (atropisomer, axis not shown) [Compound 27]
4 | C (10%≤modification <50%) | A (percent of modification ≥70%) | ≤ 500 | ≤ 100 |  | C=CC(=O)N1C[C@H](Oc2nc(OC[C@@]34CCCN3C[C@H](F)C4)nc3c(F)c(-c4ccc(F)c5sc(N)nc45)c(C(F)(F)F)cc23)C[C@@H]1C (atropisomer, axis not shown) [Compound 32]
5 | D (percent of modification <10%) | D (percent of modification <10%) | 5000 to 20000 | > 1000 |  | C=CC(=O)N1C[C@H](Oc2nc(OC[C@@]34CCCN3C[C@H](F)C4)nc3c(F)c(-c4ccc(F)c5sc(N)nc45)c(C(F)(F)F)cc23)C[C@@H]1C (atropisomer, axis not shown) [Compound 33]
6 | A (percent of modification ≥70%) | A (percent of modification ≥70%) | ≤ 500 |  | ≤ 100 | C=CC(=O)N1C[C@H](Oc2nc(OC[C@@]34CCCN3C[C@H](F)C4)nc3c(F)c(-c4ccc(F)c5sc(N)nc45)c(C(F)(F)F)cc23)C[C@H]1C (atropisomer, axis not shown) [Compound 37]
7 | D (percent of modification <10%) | D (percent of modification <10%) | 500 to 5000 | 100 to 1000 |  | C=CC(=O)N1C[C@H](Oc2nc(OC[C@@]34CCCN3C[C@H](F)C4)nc3c(F)c(-c4ccc(F)c5sc(N)nc45)c(C(F)(F)F)cc23)C[C@H]1C (atropisomer, axis not shown) [Compound 38]
8 | C (10%≤modification <50%) | C (10%≤modification <50%) | 500 to 5000 | 100 to 1000 |  | C=CC(=O)N1C[C@@H](C)[C@@H](Oc2nc(OC[C@@]34CCCN3C[C@H](F)C4)nc3c(F)c(-c4ccc(F)c5sc(N)nc45)c(C(F)(F)F)cc23)C1 (atropisomer, axis not shown) [Compound 39]
9 | C (10%≤modification <50%) | A (percent of modification ≥70%) | ≤ 500 | 100 to 1000 |  | C=CC(=O)N1CC[C@@H](Oc2nc(OC[C@@]34CCCN3C[C@H](F)C4)nc3c(F)c(-c4ccc(F)c5sc(N)nc45)c(C(F)(F)F)cc23)[C@@H]1C (atropisomer, axis not shown) [Compound 41]
10 | D (percent of modification <10%) | D (percent of modification <10%) | > 20000 | > 1000 |  | C=CC(=O)N1CC[C@@H](Oc2nc(OC[C@@]34CCCN3C[C@H](F)C4)nc3c(F)c(-c4ccc(F)c5sc(N)nc45)c(C(F)(F)F)cc23)[C@@H]1C (atropisomer, axis not shown) [Compound 42]
11 | A (percent of modification ≥70%) | A (percent of modification ≥70%) | ≤ 500 |  | ≤ 100 | C=CC(=O)N1CC[C@@H](Oc2nc(OC[C@@]34CCCN3C[C@H](F)C4)nc3c(F)c(-c4ccc(F)c5sc(N)nc45)c(C(F)(F)F)cc23)C1 (single isomer, unassigned) [Compound 11]
